Columns and labels:
Test in all cases: Test E preemergence herbicide test
Parameters in all cases: key: 0 = no effect, 100 = complete control
[1] = tested on: soybean; type: in vivo, Glycine max
Description: (§1) Seeds of plant species selected from corn (Zea mays), soybean (Glycine max), velvetleaf (Abutilon theophrasti), lambsquarters (Chenopodium album), wild poinsettia (Euphorbia heterophylla), pigweed, palmer (palmer pigweed, Amaranthus palmeri), waterhemp (common waterhemp, Amaranthus rudis), surinam grass (Brachiaria decumbens), crabgrass, large (large crabgrass, Digitaria sanguinalis), crabgrass, Brazil (Brazilian crabgrass, Digitaria horizontalis), panicum, fall (fall panicum, Panicum dichotomiflorum), foxtail, giant (giant foxtail, Setaria faberii), foxtail, green (green foxtail, Setaria viridis), goosegrass (Eleusine indica), johnsongrass (Sorghum halepense), ragweed (common ragweed, Ambrosia elatior), barnyardgrass (Echinochloa crus-galli), sandbur (southern sandbur, Cenchrus echinatus), arrowleaf […] rhombifolia), ryegrass, Italian (Italian ryegrass, Lolium multiflorum), dayflower, VA (Virginia dayflower, Commelina virginica), field bindweed (Convolvulus arvensis), morningglory (Ipomoea coccinea), nightshade (eastern black nightshade, Solanum ptycanthum), kochia (Kochia scoparia), nutsedge, yellow (yellow nutsedge, Cyperus esculentus), cocklebur (common cocklebur, Xanthium strumarium), smartweed (ladysthumb smartweed, Polygonum Persicaria) and beggarticks (hairy beggarticks, Bidens pilosa), were planted into a silt loam soil and treated preemergence with test chemicals formulated in a non-phytotoxic solvent mixture which included a surfactant. Treated plants and controls were maintained in a greenhouse for 21 days, after which time all species were compared to controls and visually evaluated. Plant response ratings, summarized in Table E, are based on a scale of 0 to 100 where 0 is no effect and 100 is complete control. A dash (-) response means no test result.

[2] = tested on: lambsquarters; type: in vivo, Chenopodium album
Method in brief: (§2)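 Test chemicals, formulated in a surfactant-containing non-phytotoxic solvent blend, are applied preemergence to seeded silt loam soil. After 21 days in the greenhouse, response is scored visually relative to controls, where 100 means complete control and 0 means no effect.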

[3] = tested on: surinam grass; type: in vivo, Brachiaria decumbens
Method in brief: as §2

[4] = tested on: ryegrass, Italian; type: in vivo, Lolium multiflorum
Description: as §1

O=C1NCC(c2cccc(Br)c2)C1C(=O)Nc1ccccc1F (centres unmarked) [Compound 66]
Plant response rating, Soybean ([1]; 16 g ai/ha): 0 | Plant response rating, Soybean ([1]; 31 g ai/ha): 0 | Plant response rating, Soybean ([1]; 62 g ai/ha): 0 | Plant response rating, Soybean ([1]; 125 g ai/ha): 0 | Plant response rating, Soybean ([1]; 250 g ai/ha): 0 | Plant response rating, Lambsquarters ([2]; 16 g ai/ha): 0 | Plant response rating, Lambsquarters ([2]; 31 g ai/ha): 0 | Plant response rating, Lambsquarters ([2]; 62 g ai/ha): 0 | Plant response rating, Lambsquarters ([2]; 125 g ai/ha): 0 | Plant response rating, Lambsquarters ([2]; 250 g ai/ha): 0 | Plant response rating, Surinam Grass ([3]; 16 g ai/ha): 0 | Plant response rating, Surinam Grass ([3]; 31 g ai/ha): 0 | Plant response rating, Surinam Grass ([3]; 62 g ai/ha): 0 | Plant response rating, Surinam Grass ([3]; 125 g ai/ha): 0 | Plant response rating, Surinam Grass ([3]; 250 g ai/ha): 35 | Plant response rating, Ryegrass, Italian ([4]; 16 g ai/ha): 0 | Plant response rating, Ryegrass, Italian ([4]; 31 g ai/ha): 0 | Plant response rating, Ryegrass, Italian ([4]; 62 g ai/ha): 0 | Plant response rating, Ryegrass, Italian ([4]; 125 g ai/ha): 0 | Plant response rating, Ryegrass, Italian ([4]; 250 g ai/ha): 0

Reference: patent publication US10294202B2, “Pyrrolidinones as herbicides” (FMC Corporation, priority 2013, dated 2019)
